Reference: patent publication US20240109912A1, “TRICYCLIC PYRIMIDINES AS CYCLIN-DEPENDENT KINASE 7 (CDK7) INHIBITORS” (JANSSEN PHARMACEUTICA NV, priority 2020, published 2024)
“And” between values parts separate entries of the source, which are not always exact repeats. Equal entries are not always repeated. Where two headings read alike, the source gives them in different places.

Tests used:
[1] = system: RNA polymerase II Serine 5 phosphorylation in A549 cells overexpressing CDK7 mutant (C312S); assay: Imaging-based cellular RNA PolII Ser5 phosphorylation assay in A549 cells overexpressing CDK7-mutant (C312S); format: cell-based, human; details: Homo sapiens, A549, A549 cells overexpressing CDK7 mutant (C312S); read-out: CDK7_ A549 mutant hCDK7(pIC50) (converted)
Outline: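 A stably transduced A549 pool overexpressing CDK7 C312S, a mutant that blocks covalent binding at Cys312, while retaining endogenous wild-type CDK7 was used. Ser5 phosphorylation was measured by imaging, and IC50 values were derived.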

[2] = system: RNA polymerase II Serine 5 phosphorylation (CDK7) in A549 cells
[3] = target: CDK7/cyclinH/MAT1 trimeric complex (Homo sapiens (Human), UniProt P50613); assay: In vitro CDK7 assay, potency of irreversible covalent inhibitors (kinact/KI); details: for Ki: CDK7 (20 nM enz.) (KI, μM); for kinact: read-out: CDK7 (20 nM enz.) (kinact, s^−1), 20 nM enz.
[4] = read-out: CDK7 (20 nM enz.) (kinact/ KI, M^−1*s^−1), 20 nM enz.
[5] = read-out: CDK7 (20 nM enz.) (kobs/[I], M^−1*s^−1), 20 nM enz.

Chain of CDK7/cyclinH/MAT1 trimeric complex (P50613 whole entry): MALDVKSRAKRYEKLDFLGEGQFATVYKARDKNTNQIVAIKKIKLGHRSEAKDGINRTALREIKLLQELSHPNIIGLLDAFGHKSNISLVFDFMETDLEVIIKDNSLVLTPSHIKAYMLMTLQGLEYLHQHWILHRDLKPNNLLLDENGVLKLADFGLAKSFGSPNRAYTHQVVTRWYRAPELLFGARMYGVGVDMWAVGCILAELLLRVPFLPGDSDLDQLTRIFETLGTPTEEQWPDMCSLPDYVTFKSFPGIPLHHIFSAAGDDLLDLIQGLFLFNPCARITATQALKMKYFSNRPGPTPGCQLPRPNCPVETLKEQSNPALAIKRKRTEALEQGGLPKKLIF
Chain of CDK7/cyclinH/MAT1 trimeric complex (P51946 whole entry partner): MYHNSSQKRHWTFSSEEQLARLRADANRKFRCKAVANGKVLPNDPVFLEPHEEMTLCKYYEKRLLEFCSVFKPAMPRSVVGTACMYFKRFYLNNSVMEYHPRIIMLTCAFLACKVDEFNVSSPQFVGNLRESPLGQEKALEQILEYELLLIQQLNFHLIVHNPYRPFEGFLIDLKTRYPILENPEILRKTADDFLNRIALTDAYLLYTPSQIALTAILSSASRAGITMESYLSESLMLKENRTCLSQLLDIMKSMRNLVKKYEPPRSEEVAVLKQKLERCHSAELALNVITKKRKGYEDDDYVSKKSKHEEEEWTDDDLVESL
Chain of CDK7/cyclinH/MAT1 trimeric complex (P51948 whole entry partner): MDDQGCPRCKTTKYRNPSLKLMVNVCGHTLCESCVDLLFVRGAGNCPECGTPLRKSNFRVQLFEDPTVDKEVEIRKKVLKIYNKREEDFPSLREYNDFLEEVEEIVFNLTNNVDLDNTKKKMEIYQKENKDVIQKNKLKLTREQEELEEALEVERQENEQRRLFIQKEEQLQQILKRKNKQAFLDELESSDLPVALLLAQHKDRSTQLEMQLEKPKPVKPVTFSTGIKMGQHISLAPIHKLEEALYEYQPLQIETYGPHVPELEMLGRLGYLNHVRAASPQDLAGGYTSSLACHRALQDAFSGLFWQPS

What does the source list for `C=CC(=O)N1CCC(N2CC(c3cc(C)c4c(c3)Nc3ncnc(N5CCS(=N)(=O)CC5)c3CO4)C2)CC1` [compound 105]?
IC50 [1]: > 10 µM; IC50 [2]: 0.282 µM; Ki ([3]; 20 nM enz.): 0.121 µM; kinact [3]: 3.13e-05 s⁻¹; kinact/KI [3, 4]: 259 M⁻¹ s⁻¹

`C=CC(=O)N1CC(N2CCC(c3cc(C#N)c4c(c3)Nc3ncnc(N5CCOCC5)c3CO4)CC2)C1` [compound 106] was tested. Which IC50 [1] did it give?
Its IC50 is > 10 µM.

And the IC50 [2]?
The IC50 was 0.245 µM.

And the Ki ([3]; 20 nM enz.)?
The Ki was 0.0858 µM.

What about the kinact [3] of the same compound?
Its kinact is 6.75e-05 s⁻¹.

What about the kinact/KI [3, 4] of the same compound?
Its kinact/KI is 786 M⁻¹ s⁻¹.

Which IC50 [1] does the source give for `C=CC(=O)N1CC(N2CC(c3cc(C)c4c(c3)Nc3ncnc(N5CCS(=N)(=O)CC5)c3CO4)C2)C1` [compound 110] here?
Its IC50 is > 10 µM.

What about the IC50 [2] of the same compound?
The IC50 was 0.813 µM.

And the Ki ([3]; 20 nM enz.)?
Its Ki is 0.0322 µM.

What about the kinact [3] of the same compound?
Its kinact is 4.3e-05 s⁻¹.

And the kinact/KI [3, 4]?
The kinact/KI was 1330 M⁻¹ s⁻¹.

`C=CC(=O)N1CC(N2CC(c3cc(C)c4c(c3)Nc3ncnc(N5CCS(=O)(=O)CC5)c3CO4)C2)C1` [compound 111] was tested. Which IC50 [1] did it give?
Its IC50 is > 10 µM.

What about the IC50 [2] of the same compound?
The IC50 was 0.288 µM.

What about the Ki ([3]; 20 nM enz.) of the same compound?
Its Ki is 0.112 µM.

What about the kinact [3] of the same compound?
The kinact was 0.000116 s⁻¹.

And the kinact/KI [3, 4]?
The kinact/KI was 1030 M⁻¹ s⁻¹.

For `C=CC(=O)N1CC(N2CCC(c3cc(C)c4c(c3)Nc3ncnc(N5CCC(CCO)C5)c3CO4)CC2)C1` (stereo not shown) [compound 113], which IC50 [1] is on record?
The IC50 was > 10 µM.

And the IC50 [2]?
Its IC50 is 9.12 µM.

What about the kinact [3] of the same compound?
The kinact was 3.36e-06 s⁻¹.

Which results are given for `C=CC(=O)N1CCC(N2CC(c3cc(C#N)c4c(c3)Nc3ncnc(N5CCOCC5)c3CO4)C2)CC1` [compound 120]?
IC50 [1]: > 10 µM; IC50 [2]: 0.525 µM; Ki ([3]; 20 nM enz.): 0.295 µM; kinact [3]: 3.8e-05 s⁻¹; kinact/KI [3, 4]: 129 M⁻¹ s⁻¹

With `CC#CC(=O)N1CCC(N2CC=C(c3cc(C)c4c(c3)Nc3ncnc(N5CCS(=O)(=O)CC5)c3CO4)CC2)CC1` [compound 138] as the compound, how does the IC50 [1] read?
Its IC50 is > 10 µM.

And the IC50 [2]?
The IC50 was 0.0468 µM.

And the Ki ([3]; 20 nM enz.)?
Its Ki is 0.0908 µM.

What about the kinact [3] of the same compound?
The kinact was 7.15e-05 s⁻¹.

And the kinact/KI [3, 4]?
Its kinact/KI is 788 M⁻¹ s⁻¹.

Which results are given for `CC#CC(=O)N1CC(C)(N2CCC(c3cc(C)c4c(c3)Nc3ncnc(N5CCS(=O)(=O)CC5)c3[C@@H](C)O4)CC2)C1` [compound 144]?
IC50 [1]: > 10 µM; IC50 [2]: ~0.0468 µM; Ki ([3]; 20 nM enz.): 0.00389 µM; kinact [3]: 4.73e-05 s⁻¹; kinact/KI [3, 4]: 12200 M⁻¹ s⁻¹

Which IC50 [1] does the source give for `CC#CC(=O)N1CC(N2CCC(c3cc(C)c4c(c3)Nc3ncnc(N5CCS(=O)(=O)CC5)c3[C@@H](C)O4)CC2)C1` [compound 148] here?
Its IC50 is > 10 µM.

And the IC50 [2]?
Its IC50 is 0.0427 µM and 0.0603 µM and 0.0759 µM and 0.0631 µM and ~0.0617 µM.

And the “CDK7 (20 nM enz.) (kinact, s^−1)” value ([3]; 20 nM enz.)?
The value was 6.08e-05 s⁻¹ and 5.32e-05 s⁻¹ and 4.3e-05 s⁻¹.

And the “CDK7 (20 nM enz.) (kobs/[I], M^−1*s^−1)” value ([3]; 20 nM enz.)?
Its value is 1230.83 M⁻¹ s⁻¹.

And the Ki ([3]; 20 nM enz.)?
The Ki was 0.0218 µM and 0.0473 µM and 0.0348 µM and 0.00601 µM.

And the kinact [3]?
Its kinact is 4.04e-05 s⁻¹.

What about the kinact/KI [3, 5] of the same compound?
The kinact/KI was 952 M⁻¹ s⁻¹.

Which IC50 [1] does the source give for `CC#CC(=O)N1CCC(N2CCN(c3cc(C)c4c(c3)Nc3ncnc(N5CCS(=O)(=O)CC5)c3[C@@H](C)O4)CC2)CC1` [compound 154] here?
The IC50 was > 10 µM.

What about the IC50 [2] of the same compound?
The IC50 was ~0.0537 µM.

What about the Ki ([3]; 20 nM enz.) of the same compound?
The Ki was 0.00416 µM.

What about the kinact [3] of the same compound?
Its kinact is 5.87e-05 s⁻¹.

And the kinact/KI [3, 4]?
Its kinact/KI is 14100 M⁻¹ s⁻¹.

How did the IC50 [1] turn out when `CC#CC(=O)N1CC(N2CCN(c3cc(C)c4c(c3)Nc3ncnc(N5CCS(=O)(=O)CC5)c3[C@@H](C)O4)CC2)C1` [compound 155] was run?
The IC50 was > 10 µM.

What about the IC50 [2] of the same compound?
Its IC50 is 0.214 µM.

And the Ki ([3]; 20 nM enz.)?
The Ki was 0.00172 µM.

What about the kinact [3] of the same compound?
The kinact was 2.06e-05 s⁻¹.

What about the kinact/KI [3, 4] of the same compound?
The kinact/KI was 12200 M⁻¹ s⁻¹.

How did the IC50 [1] turn out when `[2H]C1(N2CCC(c3cc(C)c4c(c3)Nc3ncnc(N5CCS(=O)(=O)CC5)c3[C@@H](C)O4)CC2)CN(C(=O)C#CC)C1` [compound 160] was run?
The IC50 was > 10 µM.

What about the IC50 [2] of the same compound?
Its IC50 is 0.115 µM.

What about the Ki ([3]; 20 nM enz.) of the same compound?
The Ki was 0.0135 µM.

And the kinact [3]?
Its kinact is 9.88e-05 s⁻¹.

And the kinact/KI [3, 4]?
Its kinact/KI is 7340 M⁻¹ s⁻¹.

How did the IC50 [1] turn out when `C#Cc1cc(C2CCN(C3CN(C(=O)C=C)C3)CC2)cc2c1O[C@@H](C)c1c(ncnc1N1CCS(=O)(=O)CC1)N2` [compound 190] was run?
The IC50 was > 10 µM.

What about the IC50 [2] of the same compound?
The IC50 was ~0.0501 µM and ~0.0407 µM.

What about the kinact/KI [3, 5] of the same compound?
Its kinact/KI is 839 M⁻¹ s⁻¹.

What does the source list for `C#Cc1cc(C2CCN(C3CN(C(=O)C#CC)C3)CC2)cc2c1O[C@@H](C)c1c(ncnc1N1CCS(=O)(=O)CC1)N2` [compound 191]?
IC50 [1]: > 10 µM; IC50 [2]: 0.191 µM; Ki ([3]; 20 nM enz.): 0.1 µM; kinact [3]: 8.29e-05 s⁻¹; kinact/KI [3, 4]: 809 M⁻¹ s⁻¹

What does the source list for `C#Cc1cc(C2CCN(C3CN(C(=O)C#CC)C3)CC2)cc2c1O[C@H](C)c1c(ncnc1N1CCS(=O)(=O)CC1)N2` [compound 192]?
IC50 [1]: > 10 µM; IC50 [2]: 0.457 µM; Ki ([3]; 20 nM enz.): 0.856 µM; kinact [3]: 8.38e-05 s⁻¹; kinact/KI [3, 4]: 103 M⁻¹ s⁻¹

For `C#Cc1cc(C2CN([C@H]3CCN(C(=O)C=C)C3)C2)cc2c1O[C@H](C)c1c(ncnc1N1CCS(=O)(=O)CC1)N2` [compound 193], which IC50 [1] is on record?
Its IC50 is > 10 µM.

What about the IC50 [2] of the same compound?
Its IC50 is 0.513 µM.

What about the Ki ([3]; 20 nM enz.) of the same compound?
Its Ki is 0.156 µM.

And the kinact [3]?
The kinact was 2.62e-05 s⁻¹.

What about the kinact/KI [3, 4] of the same compound?
Its kinact/KI is 168 M⁻¹ s⁻¹.

`C#Cc1cc(C2CN([C@H]3CCN(C(=O)C=C)C3)C2)cc2c1O[C@@H](C)c1c(ncnc1N1CCS(=O)(=O)CC1)N2` [compound 194] was tested. Which IC50 [1] did it give?
The IC50 was > 10 µM.

And the IC50 [2]?
Its IC50 is 0.158 µM.

What about the Ki ([3]; 20 nM enz.) of the same compound?
The Ki was 0.0177 µM.

And the kinact [3]?
Its kinact is 2.42e-05 s⁻¹.

What about the kinact/KI [3, 4] of the same compound?
Its kinact/KI is 1370 M⁻¹ s⁻¹.

`CC#CC(=O)N1CC(N2CCC(c3cc(C)c4c(c3)Nc3ncnc(N5CCOC6(COC6)C5)c3CO4)CC2)C1` [compound 195] was tested. Which IC50 [1] did it give?
Its IC50 is > 10 µM.

What about the IC50 [2] of the same compound?
The IC50 was 0.102 µM.

And the Ki ([3]; 20 nM enz.)?
Its Ki is 0.108 µM.

And the kinact [3]?
Its kinact is 5.21e-05 s⁻¹.

And the kinact/KI [3, 4]?
Its kinact/KI is 485 M⁻¹ s⁻¹.
